Results: patent US11591323B2, “Muscarinic agonists as non-steroidal and non-opioid analgesics and methods of use thereof” (Barry University, priority 2019, dated 2023)
Where two headings read alike, the source gives them in different places.

Assays:
Format in all cases: cell-based
M4 muscarinic receptor = target: T1, M4 muscarinic receptor (Homo sapiens, UniProt P08173); test: accumulation of IPX, M4 CHO cells with promiscuous G15 G-protein (M4Gq+G15); design: expressed in transfected cells; pCMV/hygro vector, hygromycin selection; conditions: for RAi / E′MAX / τ / Δlog(τ/KA): M4 Gq + G15 (↑IPX); for RAi: Table 8, relative to carbachol; for accumulation of IPX: M4 co-transfected with G15, in words; for E′MAX / τ: Table 8; for Δlog(τ/KA): Table 8, to carbachol
T1 sequence (P08173 1-479): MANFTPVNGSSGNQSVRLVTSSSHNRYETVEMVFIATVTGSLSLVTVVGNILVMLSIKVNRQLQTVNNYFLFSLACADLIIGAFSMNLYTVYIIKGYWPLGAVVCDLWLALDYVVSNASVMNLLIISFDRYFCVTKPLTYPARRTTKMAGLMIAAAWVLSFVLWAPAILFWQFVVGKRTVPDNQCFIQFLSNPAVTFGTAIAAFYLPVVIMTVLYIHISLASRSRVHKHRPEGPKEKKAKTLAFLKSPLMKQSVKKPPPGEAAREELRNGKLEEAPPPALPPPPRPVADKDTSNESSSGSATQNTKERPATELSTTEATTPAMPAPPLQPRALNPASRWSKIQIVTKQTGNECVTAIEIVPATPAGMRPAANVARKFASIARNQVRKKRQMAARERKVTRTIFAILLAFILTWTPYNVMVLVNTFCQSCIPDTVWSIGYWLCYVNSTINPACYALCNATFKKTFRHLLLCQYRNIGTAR
Experimental: (§1) Since activation of phospholipase C (PLC) via M2 and M4 receptors is weak, cells were transferred with G15 G-protein to facilitate coupling.
(§2) To determine level of cAMP, cells in suspension were pre-incubated for 1 h with 0.4 μM [^3H]adenine, washed, and incubated for 10 min in the presence of isobutylmethylxanthine and 10 μM forskolin. […] Incubation was ended by addition of 0.2 ml of 2.5 M HCl to the samples. Samples were applied to alumina columns (1.5 g of alumina per column), washed with 2 ml ammonium acetate (pH=7.0) and eluted from columns with 4 ml ammonium acetate and measured by liquid scintillation spectrometry. […] The incubation was stopped by addition of 0.5 ml of chloroform methanol HCl mixture (2:1:0.1). After separation of water and organic phases, 0.6 ml of water phase was applied to Dowex columns (1.5 g of Dowex per column), washed by 20 ml of 60 mM ammonium formate/5 mM sodium borate buffer and eluted from columns with 4 ml of 1M ammonium formate/0.1 formic acid buffer and measured by liquid scintillation spectrometry.
(§3) Measurements of the production of cAMP and inositol phosphates: Levels of second messengers cAMP and inositol phosphates were determined in radiochemical chromatography assays as described previously. To determine level of cAMP, cells in suspension were pre-incubated for 1 h with 0.4 μM [^3H]adenine, washed, and incubated for 10 min in the presence of isobutylmethylxanthine and 10 μM forskolin. […] Incubation was ended by addition of 0.2 ml of 2.5 M HCl to the samples. Samples were applied to alumina columns (1.5 g of alumina per column), washed with 2 ml ammonium acetate (pH=7.0) and eluted from columns with 4 ml ammonium acetate and measured by liquid scintillation spectrometry. […] For this purpose, new CHO cell lines stably expressing promiscuous G15 G-protein and M2 or M4 receptor were generated by transfection with pCMV/hygro vector and hygromycin selection. To determine the rate of formation of inositol phosphates IPX, suspended cells were pre-incubated with 0.1 μM [^3H]myo-inositol for 60 min, washed, and incubated with 10 mM LiCl for 15 min. […] The incubation was stopped by addition of 0.5 ml of chloroform methanol HCl mixture (2:1:0.1). After separation of water and organic phases, 0.6 ml of water phase was applied to Dowex columns (1.5 g of Dowex per column), washed by 20 ml of 60 mM ammonium formate/5 mM sodium borate buffer and eluted from columns with 4 ml of 1M ammonium formate/0.1 formic acid buffer and measured by liquid scintillation spectrometry.
(§4) For bi-phasic response, curves were inhibitory and stimulatory phase were fitted separately. Operational Model of Functional Agonism
(§5) [formula] where y is functional response at concentration of tested compound x, EMAX is maximal response of the system, KA is equilibrium dissociation constant and nH is slope factor. Eq. 5 was fitted to data from functional experiments. Eq. 5 was fitted to data by the two-step procedure described earlier. […] In the second step, Eq. 5 with EMAX fixed to the value determined in the first step was fitted to individual experimental data sets. Relative Intrinsic Activity
(§6) Muscarinic receptors are also able to stimulate non-preferential signalling pathways.

M2 muscarinic receptor = target: T2, M2 muscarinic receptor (Homo sapiens, UniProt P08172); test: accumulation of IPX, M2 CHO cells (M2Gq); design: host or cells: CHO cells, stably transfected; conditions: for RAi / E′MAX / τ / Δlog(τ/KA): M2Gq (↑IPX); for RAi: Table 8, relative to carbachol; for E′MAX / τ: Table 8; for Δlog(τ/KA): Table 8, to carbachol
T2 sequence (P08172 1-466): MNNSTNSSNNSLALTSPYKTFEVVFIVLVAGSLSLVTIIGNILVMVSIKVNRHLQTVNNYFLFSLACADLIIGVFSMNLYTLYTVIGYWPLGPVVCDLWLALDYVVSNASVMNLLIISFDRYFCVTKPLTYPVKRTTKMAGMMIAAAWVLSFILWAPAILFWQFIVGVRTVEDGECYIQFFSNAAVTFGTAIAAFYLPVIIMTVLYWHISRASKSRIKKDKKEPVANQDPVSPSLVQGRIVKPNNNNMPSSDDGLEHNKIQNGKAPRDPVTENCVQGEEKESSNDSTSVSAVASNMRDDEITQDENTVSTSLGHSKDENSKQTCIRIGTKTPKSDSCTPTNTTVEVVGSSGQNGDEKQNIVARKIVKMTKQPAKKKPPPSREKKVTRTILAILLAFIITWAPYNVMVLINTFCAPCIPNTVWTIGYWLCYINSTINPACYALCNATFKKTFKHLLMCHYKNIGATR
Experimental: as §2, §3, §4, §5

M3 muscarinic receptor = M3 muscarinic receptor (Homo sapiens, UniProt P20309); test: stimulation of cAMP, M3 CHO cells (M3Gs); design: host or cells: CHO cells, stably transfected
Sequence of M3 muscarinic receptor (P20309 whole entry): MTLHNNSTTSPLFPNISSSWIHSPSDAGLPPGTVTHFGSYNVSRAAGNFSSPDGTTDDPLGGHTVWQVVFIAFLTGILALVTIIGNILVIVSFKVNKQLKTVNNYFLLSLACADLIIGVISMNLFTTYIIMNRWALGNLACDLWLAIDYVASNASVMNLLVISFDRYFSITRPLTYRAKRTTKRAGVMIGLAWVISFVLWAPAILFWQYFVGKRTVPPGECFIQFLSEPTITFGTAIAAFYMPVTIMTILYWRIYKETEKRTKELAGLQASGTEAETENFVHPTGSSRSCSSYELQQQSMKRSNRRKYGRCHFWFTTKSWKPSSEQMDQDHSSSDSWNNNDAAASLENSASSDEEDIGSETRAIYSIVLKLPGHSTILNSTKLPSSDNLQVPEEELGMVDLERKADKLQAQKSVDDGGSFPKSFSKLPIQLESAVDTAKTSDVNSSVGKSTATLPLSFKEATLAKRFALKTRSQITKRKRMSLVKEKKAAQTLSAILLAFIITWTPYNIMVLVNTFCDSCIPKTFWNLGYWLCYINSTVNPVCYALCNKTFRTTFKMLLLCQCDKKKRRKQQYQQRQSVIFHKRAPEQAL
Experimental: as §1, §2, §3, §4, §5, §6

[1] = M3Gs (↑cAMP), Table 8, relative to carbachol

Structure (SMILES) | RAi (M4 muscarinic receptor) | accumulation of IPX (M4 muscarinic receptor) | RAi (M2 muscarinic receptor) | RAi (M3 muscarinic receptor; [1]) | E′MAX (M4 muscarinic receptor) | τ (M4 muscarinic receptor) | Δlog(τ/KA) (M4 muscarinic receptor) | E′MAX (M2 muscarinic receptor) | τ (M2 muscarinic receptor) | Δlog(τ/KA) (M2 muscarinic receptor) | EC50 (M2 muscarinic receptor) | Kd (M2 muscarinic receptor) | EC50 (M3 muscarinic receptor) | E′MAX (M3 muscarinic receptor) | Kd (M3 muscarinic receptor) | RAi (M3 muscarinic receptor) | Δlog(τ/KA) (M3 muscarinic receptor) | τ (M3 muscarinic receptor)
C1=CCN(Cc2cccs2)CC1.Cl [Compound 6A, 1-[(thiophen-2-yl)methyl]-1,2,3,6-tetrahydropyridin-1-ium chloride] | 0 | did not stimulate IPX accumulation | 0 | 0 | – | – | – | – | – | – | – | – | – | – | – | – | – | –
C[N+]1(Cc2cccs2)CC=CCC1.[I-] (stereo not shown) [Compound 7A, 1-methyl-1-[(thiophen-2-yl)methyl]-1,2,3,6-tetrahydropyridin-1-ium iodide] | 0 | did not stimulate IPX accumulation | 0 | 0 | – | – | – | – | – | – | – | – | – | – | – | – | – | –
C[N+](C)(C)CCOC(N)=O [carbachol, reference compound] | – | stimulated accumulation of IPX | – | – | 4.5 ± 0.3 fold over basal | 4.8 ± 0.5 | 0 | 1.91 ± 0.07 fold over basal | 0.2 ± 0.1 | 0 | – | – | – | – | – | – | – | –
O=C1CCCN1CC#CCN1CCCC1 [oxotremorine, reference compound] | 3.50 ± 0.33 | – | 3.08 ± 0.28 | – | 4.0 ± 0.3 fold over basal | 2.5 ± 0.2 | −0.54 | 1.60 ± 0.05 fold over basal | 0.2 ± 0.1 | −0.49 ± 0.05 | 0.209 µM | 0.251 µM | 2.63 µM | 1.9 ± 0.1 fold increase | 3.98 µM | 4.23 ± 0.28 | −0.63 ± 0.06 | 0.48 ± 0.05
